Test results as given in article PMC12615753, “Glutathione as a taste modulator: molecular mechanisms of interaction with umami and sweet taste receptors” (Food Chemistry: Molecular Sciences, 2025).

Biological target: T1, hTAS1R2/rTAS1R3 (UniProt Q8TE23+Q923K1)
T1 construct: The cDNA coding region of rTAS1R3 was synthesized with optimized-codon usage for human expression; expressed in transfected cells
T1 sequence (Q8TE23 20-839): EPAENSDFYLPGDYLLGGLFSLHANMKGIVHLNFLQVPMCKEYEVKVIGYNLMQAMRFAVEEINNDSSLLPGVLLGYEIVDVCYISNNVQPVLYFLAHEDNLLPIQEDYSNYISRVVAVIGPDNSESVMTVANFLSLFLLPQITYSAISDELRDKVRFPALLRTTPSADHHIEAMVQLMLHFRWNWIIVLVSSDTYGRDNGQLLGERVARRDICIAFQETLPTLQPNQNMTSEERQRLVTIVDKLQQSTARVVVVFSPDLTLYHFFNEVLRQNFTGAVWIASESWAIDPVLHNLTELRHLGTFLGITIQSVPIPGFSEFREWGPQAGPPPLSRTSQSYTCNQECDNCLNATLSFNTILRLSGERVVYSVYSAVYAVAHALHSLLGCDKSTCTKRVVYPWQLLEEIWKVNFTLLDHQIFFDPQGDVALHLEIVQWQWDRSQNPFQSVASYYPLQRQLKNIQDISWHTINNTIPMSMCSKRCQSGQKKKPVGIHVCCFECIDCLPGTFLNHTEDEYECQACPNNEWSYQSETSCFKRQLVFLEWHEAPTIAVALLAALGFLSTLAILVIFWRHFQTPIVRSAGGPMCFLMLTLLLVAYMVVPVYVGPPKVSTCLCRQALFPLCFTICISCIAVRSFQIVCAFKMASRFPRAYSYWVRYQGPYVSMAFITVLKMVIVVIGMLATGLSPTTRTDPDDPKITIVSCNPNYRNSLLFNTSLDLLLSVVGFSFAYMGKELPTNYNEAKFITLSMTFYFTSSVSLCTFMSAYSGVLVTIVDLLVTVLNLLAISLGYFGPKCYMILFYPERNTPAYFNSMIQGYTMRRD
T1 sequence (Q923K1 21-858): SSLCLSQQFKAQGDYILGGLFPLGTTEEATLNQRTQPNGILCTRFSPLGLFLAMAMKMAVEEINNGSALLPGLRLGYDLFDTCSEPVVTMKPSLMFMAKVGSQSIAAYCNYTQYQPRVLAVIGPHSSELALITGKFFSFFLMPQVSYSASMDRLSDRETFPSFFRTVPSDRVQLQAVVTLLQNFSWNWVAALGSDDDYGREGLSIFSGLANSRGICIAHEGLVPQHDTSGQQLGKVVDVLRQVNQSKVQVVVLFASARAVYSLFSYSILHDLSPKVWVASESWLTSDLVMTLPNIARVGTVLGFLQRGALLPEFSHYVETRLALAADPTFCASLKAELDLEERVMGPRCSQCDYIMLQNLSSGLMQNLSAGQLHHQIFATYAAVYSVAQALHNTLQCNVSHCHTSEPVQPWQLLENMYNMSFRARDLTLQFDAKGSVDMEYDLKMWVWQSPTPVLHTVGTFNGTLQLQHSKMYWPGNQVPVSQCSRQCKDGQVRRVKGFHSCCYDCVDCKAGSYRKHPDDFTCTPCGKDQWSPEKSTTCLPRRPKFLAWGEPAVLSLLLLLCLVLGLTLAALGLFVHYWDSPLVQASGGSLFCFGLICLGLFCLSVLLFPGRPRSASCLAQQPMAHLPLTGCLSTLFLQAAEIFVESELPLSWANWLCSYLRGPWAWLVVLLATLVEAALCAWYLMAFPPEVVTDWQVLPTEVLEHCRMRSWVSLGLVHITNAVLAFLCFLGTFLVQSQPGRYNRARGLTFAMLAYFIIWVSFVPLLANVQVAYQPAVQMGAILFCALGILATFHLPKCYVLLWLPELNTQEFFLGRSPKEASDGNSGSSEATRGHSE
Test: Calcium assay in transfected HEK293T/17 cells, sweet taste receptor
Type: cell-based, human, rat
Method: HEK293T/17 cells (ATCC CRL-11268) were seeded into clear bottom black 96-well plates coated with poly-D-lysine at a density of 32500 cells/well in 100 μL of DMEM containing 4.5 g/L glucose and supplemented with penicillin/streptomycin, 2 mM GlutaMAX and 10 % dialyzed fetal bovine serum. The plates were incubated for 24 h at 37 °C and 7.3 % CO2 in a humidified atmosphere. After incubation, using Fugene® 4 K (0.46 μL/well, Promega, Illkirch, France), the cells were transiently transfected with pcDNA3-hTAS1R1-WT (60 ng/well) or TAS1R1 mutants, pcDNA4-rTAS1R3 (60 ng/well), pcDNA3-Gα15i2 (10 ng/well), and pGP-CMV-GCaMP6s (Addgene #40753; 10 ng/well) as a genetically encoded calcium indicator. Twenty-four hours after transfection, the HEK293T/17 cells were rinsed with 100 μL of C1 buffer (130 mM NaCl, 5 mM KCl, 10 mM HEPES, 2 mM CaCl2, and 5 mM sodium pyruvate, pH 7.4). For each molecule tested, a semi-logarithmic concentration range was created consisting of seven increasing concentrations and a negative control (zero dose) made of buffer C1. Binary mixtures with different molecules were also made to study potential synergy. In this case, the concentration range was tested in C1 buffer containing the other molecules to be tested. The concentration ranges varied depending on the molecule, its solubility, and its effectiveness in activating the receptor. All the solutions were made on the day of the test to prevent any oxidation of the compounds. If needed, the pH of each solution was adjusted by to pH 7.4 by adding NaOH. After 20 s of basal fluorescence calcium measurement, the cells were stimulated via automatic injection of a range of compounds in eight wells, and the signal emission was recorded for an additional 70 s, via a FlexStation 3® fluorometric microplate reader (Molecular Devices, San Jose, CA, USA). As a control, molecules were also tested on mock-transfected cells with the empty vector. The emitted fluorescence was measured at a wavelength of 510 nm after excitation at 488 nm. Each measurement was performed in duplicate on the same plate, and the experiments were carried out at least four times. Kinetic data were acquired via SoftMax Pro 5.4.6 software (Molecular Devices). For each well, the decrease in the raw fluorescence as the relative fluorescence changed was calculated as ΔF/F0. Replicates were averaged for the wells subjected to the same stimuli, the background signal was subtracted, and the fluorescence changes in mock-transfected cells were subtracted. The half-maximal effective concentration (EC50) and maximal signal amplitude (max ∆F/F0) were calculated via non-linear regression of the sigmoidal function four-parameter logistic equation [f(x) = min + (max − min)/(1 + (x/EC50)^nH)] via SigmaPlot 15.0 software (Grafiti LLC, Palo Alto, CA, USA). […]

| EC50 (WT, sucralose alone, Fig. 4A) | Structure (SMILES) | EC50 (agonist alone, Fig. 2) | fold decrease in the EC50 value of sucralose (in the presence of 10 mM GSH) |
| --- | --- | --- | --- |
| 325 ± 140 µM | OC[C@H]1O[C@H](O[C@]2(CCl)O[C@H](CCl)[C@@H](O)[C@@H]2O)[C@H](O)[C@@H](O)[C@H]1Cl [sucralose, reference compound] | 251 ± 128 µM |  |
|  | N[C@@H](CCC(=O)N[C@@H](CS)C(=O)NCC(=O)O)C(=O)O [GSH, γ-L-glutamyl-L-cysteinyl-glycine] | 4060 ± 2510 µM | 3 fold |
